This is an account of results in ChEMBL document CHEMBL3877314, “Molecular docking, discovery, synthesis, and pharmacological properties of new 6-substituted-2-(3-phenoxyphenyl)-4-phenyl quinoline derivatives; an approach to developing potent DNA gyrase inhibitors/antibacterial agents” (Bioorg Med Chem, 2017).

One data set has as its target DNA gyrase subunit A (Staphylococcus aureus, UniProt P20831). The data set is described as follows: Inhibition of Staphylococcus aureus DNA gyrase A expressed in Escherichia coli BL21(DE3) using relaxed pBR322 DNA as substrate incubated for 1 hr by bromophenol blue dye based agarose gel electrophoresis method.
The subject of the next data set is Staphylococcus aureus. The data set is described as follows: Antibacterial activity against Staphylococcus aureus MTCC 96 at 250 ug/ml after 24 hrs by agar well diffusion method. The class given is functional. Particulars: MTCC 96, 24 h, read-out: IZ. A general note: In agar diffusion tests the substance spreads into inoculated agar from a disc or well.
Data set [1] can be described thus: Growth inhibition of human MCF10 cells at 10 to 150 ug/ml after 24 hrs by MTT assay. The class given is cell-based. Particulars: mcf10, 24 h.
The nature of data set [2]: Growth inhibition of human MCF7 cells at 10 to 150 ug/ml after 24 hrs by MTT assay relative to control. The class given is functional.
Data set [3] is described as follows: Growth inhibition of human G361 cells after 24 hrs by MTT assay. The class given is functional, cell-based. Particulars: G-361, 24 h. Background: Tetrazolium dyes change colour on reduction, which living cells bring about.
Another data set deals with Escherichia coli. The data set can be described thus: Antibacterial activity against Escherichia coli MTCC 443 at 250 ug/ml after 24 hrs by agar well diffusion method. The class given is functional. Particulars: MTCC 443, 24 h, read-out: IZ.
For the next data set, the system named is Streptococcus pyogenes. The data set is described as follows: Antibacterial activity against Streptococcus pyogenes MTCC 442 at 250 ug/ml after 24 hrs by agar well diffusion method. The class given is functional. Particulars: MTCC 442, 24 h, read-out: IZ.
The nature of data set [4]: Growth inhibition of human MCF7 cells after 24 hrs by MTT assay. The class given is functional, cell-based. Conditions: MCF7, 24 h.
In another data set the test system is Pseudomonas aeruginosa. The data set can be described thus: Antibacterial activity against Pseudomonas aeruginosa MTCC 424 at 250 ug/ml after 24 hrs by agar well diffusion method. The class given is functional. Particulars: MTCC 424, 24 h, read-out: IZ.
Data set [5] in a line: Growth inhibition of human G361 cells at 10 to 150 ug/ml after 24 hrs by MTT assay relative to control. The class given is functional, G-361.

Sequence of DNA gyrase subunit A (P20831 whole entry, the tested form may be a part): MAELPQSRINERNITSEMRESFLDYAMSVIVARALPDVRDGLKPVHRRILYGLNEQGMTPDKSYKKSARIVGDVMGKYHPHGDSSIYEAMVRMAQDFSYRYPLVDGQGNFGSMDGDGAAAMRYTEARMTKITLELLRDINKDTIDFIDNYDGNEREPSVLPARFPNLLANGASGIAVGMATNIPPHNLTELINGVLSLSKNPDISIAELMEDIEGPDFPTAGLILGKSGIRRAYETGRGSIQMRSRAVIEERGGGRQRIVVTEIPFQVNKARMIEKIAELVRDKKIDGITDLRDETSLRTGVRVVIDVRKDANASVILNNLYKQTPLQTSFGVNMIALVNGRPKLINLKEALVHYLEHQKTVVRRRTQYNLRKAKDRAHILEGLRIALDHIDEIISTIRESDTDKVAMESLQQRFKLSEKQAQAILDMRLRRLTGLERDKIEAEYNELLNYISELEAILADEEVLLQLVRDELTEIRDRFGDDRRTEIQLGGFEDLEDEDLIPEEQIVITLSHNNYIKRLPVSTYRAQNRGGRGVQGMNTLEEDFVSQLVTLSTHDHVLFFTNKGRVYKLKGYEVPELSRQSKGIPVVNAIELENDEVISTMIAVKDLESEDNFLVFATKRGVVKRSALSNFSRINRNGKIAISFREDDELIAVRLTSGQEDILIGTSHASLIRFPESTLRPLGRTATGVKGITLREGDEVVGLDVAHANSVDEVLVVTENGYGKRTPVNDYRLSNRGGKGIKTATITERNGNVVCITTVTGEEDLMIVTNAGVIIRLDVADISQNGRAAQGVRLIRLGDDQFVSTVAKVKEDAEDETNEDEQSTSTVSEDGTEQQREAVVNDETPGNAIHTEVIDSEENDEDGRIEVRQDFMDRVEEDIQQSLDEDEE

For orientation: IC50 means the point on the concentration scale where inhibition reaches its midpoint. With `COc1ccc2nc(-c3cccc(Oc4ccccc4)c3)cc(-c3ccccc3)c2c1`, the 50% inhibitory concentration (IC50) at DNA gyrase subunit A was 530 to 11500 nM; in data set [3] it was 2020 nM; in [4], 548 nM. The zone of inhibition at 250 µg/mL is 29.6 mm in the data set with Staphylococcus aureus, 21.4 mm with Escherichia coli, 22.7 mm with Streptococcus pyogenes and 10.8 mm with Pseudomonas aeruginosa. In addition, the “growth inhibition (GI)” value in data set [1] was “Non-Toxic”; in [2], 74.49%; in [5], 59.27%.

For the compound `Fc1ccc2nc(-c3cccc(Oc4ccccc4)c3)cc(-c3ccccc3)c2c1`, the IC50 was 912 to 994 nM at DNA gyrase subunit A, 3850 nM in data set [3] and 1680 nM in data set [4]. Moreover, the zone of inhibition at 250 µg/mL stood at 29.9 mm in the data set on Staphylococcus aureus, 18.3 mm in the data set on Escherichia coli, 18.5 mm with Streptococcus pyogenes and 10.4 mm in the data set on Pseudomonas aeruginosa. Further, the “growth inhibition (GI)” value is “Non-Toxic” in data set [1], 60.25% in data set [2] and 46.24% in data set [5].

Take `O=C(O)c1cn(C2CC2)c2cc(N3CCNCC3)c(F)cc2c1=O` [CIPROFLOXACIN]: the zone of inhibition at 250 µg/mL in the data set on Staphylococcus aureus fell in the range of 21 to 26.4 mm; in the data set with Escherichia coli it was 21 to 26.7 mm; with Streptococcus pyogenes, 18 to 24.4 mm; with Pseudomonas aeruginosa, 21 to 23.8 mm.

`Clc1ccc2nc(-c3cccc(Oc4ccccc4)c3)cc(-c3ccccc3)c2c1`: the figures for the IC50 (on DNA gyrase subunit A; in data set [3]; in [4]) were 525 to 11300 nM, 12000 nM and 11000 nM, respectively. In addition, the zone of inhibition at 250 µg/mL in the data set with Staphylococcus aureus came out at 21.6 mm; in the data set on Escherichia coli, 18.1 mm; in the data set with Streptococcus pyogenes it was 20.2 mm; with Pseudomonas aeruginosa, 6.89 mm. Also, the “growth inhibition (GI)” value in [1] is given as “Non-Toxic”; in [2], 32.14%; in data set [5], 30.45%.

Regarding `N#Cc1ccc2nc(-c3cccc(Oc4ccccc4)c3)cc(-c3ccccc3)c2c1`, the IC50 against DNA gyrase subunit A was 537 to 11600 nM; in [3] it was 2150 nM; in data set [4], 822 nM. For the same compound, the zone of inhibition at 250 µg/mL turned out to be 26.5 mm with Staphylococcus aureus, 16.5 mm in the data set on Escherichia coli, 21.2 mm with Streptococcus pyogenes and 12.7 mm with Pseudomonas aeruginosa. The “growth inhibition (GI)” value is reported as “Non-Toxic” in data set [1], 70.64% in data set [2] and 54.38% in data set [5].

`CO[C@@H]1[C@@H](OC(=O)c2ccc(C)[nH]2)[C@@H](O)[C@H](Oc2ccc3c(O)c(NC(=O)c4ccc(O)c(CC=C(C)C)c4)c(=O)oc3c2Cl)OC1(C)C` [CHLOROBIOCIN] had an IC50 at DNA gyrase subunit A of 930 nM.

In the case of `COc1cccc2c1C(=O)c1c(O)c3c(c(O)c1C2=O)C[C@@](O)(C(=O)CO)C[C@@H]3O[C@H]1C[C@H](N)[C@H](O)[C@H](C)O1` [DOXORUBICIN], the “growth inhibition (GI)” value in [2] amounted to 71.56%. Further, the IC50 in [4] was in the range of 812 to 1200 nM.

On to `Oc1ccc2nc(-c3cccc(Oc4ccccc4)c3)cc(-c3ccccc3)c2c1`, for which the half-maximal inhibitory concentration (IC50) against DNA gyrase subunit A is 842 to 1070 nM; in data set [3] it was 2070 nM; in [4] it was 694 nM. In addition, the zone of inhibition at 250 µg/mL was found to be 34.6 mm in the data set on Staphylococcus aureus, 26.5 mm in the data set with Escherichia coli, 29.8 mm in the data set with Streptococcus pyogenes and 16.5 mm in the data set with Pseudomonas aeruginosa. In addition, the “growth inhibition (GI)” value in [1] is on record as “Non-Toxic”; in data set [2], 72.56%; in data set [5] it was 58.46%.

Turning to `Oc1c(Cl)cc2nc(-c3cccc(Oc4ccccc4)c3)cc(-c3ccccc3)c2c1Cl`, the IC50 on DNA gyrase subunit A is 467 nM; in [3], 2000 nM; in data set [4], 702 nM. Also, the zone of inhibition at 250 µg/mL in the data set on Staphylococcus aureus came to 38.5 mm; in the data set on Escherichia coli, 26 mm; in the data set with Streptococcus pyogenes it was 29.2 mm; in the data set on Pseudomonas aeruginosa it was 21.3 mm. The “growth inhibition (GI)” value in [1] was “Non-Toxic”; in [2], 73.17%; in data set [5] it was 60.34%.

Regarding `Brc1ccc2nc(-c3cccc(Oc4ccccc4)c3)cc(-c3ccccc3)c2c1`, the IC50 at DNA gyrase subunit A is 473 to 10200 nM; in data set [3], 14600 nM; in data set [4] it was 11100 nM. Moreover, the zone of inhibition at 250 µg/mL was found to be 22.5 mm in the data set with Staphylococcus aureus, 16.4 mm in the data set with Escherichia coli, 22.4 mm with Streptococcus pyogenes and 9.79 mm in the data set on Pseudomonas aeruginosa. Also, the “growth inhibition (GI)” value in data set [1] is “Non-Toxic”; in data set [2] it was 30.81%; in [5] it was 28.89%.

On to `Cc1cc2nc(-c3cccc(Oc4ccccc4)c3)cc(-c3ccccc3)c2cc1C`, for which the IC50 on DNA gyrase subunit A is 533 to 11500 nM; in [3], 5840 nM; in data set [4], 3410 nM. For the same compound, the zone of inhibition at 250 µg/mL in the data set on Staphylococcus aureus is 27.5 mm; in the data set on Escherichia coli, 22.5 mm; in the data set on Streptococcus pyogenes, 22.5 mm; in the data set on Pseudomonas aeruginosa it was 11.4 mm. In addition, the figures for the “growth inhibition (GI)” value in data set [1], in data set [2] and in data set [5] were “Non-Toxic”, 48.34% and 38.18%, respectively.
